Laboratory results reported in PubChem BioAssay AID1963829 (Molecular Pharmacology Branch, DTP, NCI, 2024).

System: 935938-334-R-J1-PDC complex spheroid viability
Test: Anticancer human tumor 935938-334-R-J1-PDC patient-derived small intestine adenocarcinoma cell line growth inhibition [POLQ]
Details: for IC50: curve of first compound; for viability, T/C: stronger effect = lower value
Description: Multicellular complex tumor spheroid response to Polymerase (POL) inhibitors (novobiocin, ART-558, RP6685) in combination with a variety of drugs and investigational agents in selected tumor cell lines
The POL inhibitors (novobiocin, ART-558, and RP6685) were evaluated both individually and in combination with standard of care and investigational anticancer small molecules within a complex spheroid model of solid tumors. . Complex spheroids include a stromal component modeled by human endothelial cells (HUVEC) and fibroblasts modeled by human mesenchymal stem cells (MSCs). The concentration ranges selected for each drug and investigational agent were based upon clinically achievable concentrations if the clinical Cmax of the agent was known.
Compounds. The drugs and investigational agents: novobiocin (NSC847541), ART-558 (NSC835418), RP-6685 (NSC848927), peposertib (NSC802822), ceralasertib (NSC780249), elimusertib (NSC800525), camonsertib (NSC841442), AZD-1390 (NSC803789), olaparib (NSC753686), talazoparib (NSC767125), rucaparib (NSC756644), sotorasib (NSC818433), MRTX-1133 (NSC836407), SN-38 (NSC673596), topotecan (NSC609699), epotoside (NSC141540), doxorubicin (NSC123127), gemcitabine (NSC613327), 5-fluorouracil (NSC19893), paclitaxel (NSC125973), vemurafenib (NSC761431), MSA-2 (NSC828583), SN-011 (NSC837082), adavosertib (NSC754352), prexasertib (NSC758257), carboplatin (NSC241240) and oxaliplatin (NSC266046), were obtained from the National Cancer Institute (NCI) Developmental Therapeutics Program Chemical Repository (21). The FDA-approved anticancer drug set is available from the Developmental Therapeutics Program at https://dtp.cancer.gov/organization/dscb/obtaining/. […] The stock solutions were prepared in dimethyl sulfoxide (DMSO, Sigma-Aldrich, St. Louis, MO, cat. D2650), except for the platinum compounds which were prepared in saline (Quality Biological, Gaithersburg, MD, cat. 114-055-101), at 800-fold the tested concentration and stored at -70 degrees C prior to their use. All drugs and investigational agents were tested over a range starting from a high concentration at or near the clinical Cmax and decreasing in half-log increments. If the clinical Cmax for an agent had not been determined, the highest concentration tested was 10 microM, except for SN-38, which was tested at a high concentration of 1 microM.
Cell Culture. All cells were maintained in an incubator at 37 degrees C and 5% CO2 with 95% humidity. The PDC lines were cultured according to standard operating procedures established by the NCI PDMR (https://pdmr.cancer.gov). Table 3 of the manuscript, lists the cell lines along with the number of the three cell types plated to form the mct-spheroids and media for tumor cell growth. After thawing, all PDC lines, except 997537-175-T-J1-PDC and 415267-285-R-J2-PDC, were cultured in Matrigel-coated flasks prepared with a working solution of 1X Ham's F-12 nutrient mix, without supplementation (Thermo Fisher Scientific, cat. 11765054), 100 U/mL penicillin-streptomycin (Thermo Fisher Scientific, cat. 15140122), and 2.5% Matrigel (Corning Inc., Corning, NY, cat. 354248) for the first three passages. The two PDC lines 997537-175-T-J1-PDC and 415267-285-R-J2-PDC were cultured on uncoated flasks. The 857933-349-R-J2-PDC line was cultured in 6C/Colon 1B media containing advanced DMEM/F-12 (Thermo Fisher Scientific, cat. 12634028), 10 mM HEPES (Thermo Fisher Scientific, cat. 15630080), 1X GlutaMAX supplement (Thermo Fisher Scientific, cat. 35050061), 0.1 mg/mL primocin (InvivoGen, San Diego, CA, cat. ant-pm-2), 10% defined fetal bovine serum, heat inactivated (HyClone Laboratories Inc., Logan, UT, cat. SH30070.03HI), 50% L-WRN conditioned media (ATCC, cat. CRL-3276), 1.25 mM N-Acetyl-L-cysteine (Sigma-Aldrich, cat. A9165), 10 mM nicotinamide (Sigma-Aldrich, cat. N0636), 1X B-27 supplement (Thermo Fisher Scientific, cat. 17504044), 1X N-2 supplement (Thermo Fisher Scientific, cat. […]

[1] = second compound 0.0316 µM, first compound 0.0316 µM
[2] = second compound 0.0316 µM, first compound 0.1 µM
[3] = second compound 0.0316 µM, first compound 0.316 µM
[4] = second compound 0.0316 µM, first compound 1 µM
[5] = second compound 0.0316 µM, first compound 3.16 µM
[6] = second compound 0.0316 µM, first compound 10 µM
[7] = second compound 0.1 µM, first compound 0.0316 µM
[8] = second compound 0.1 µM, first compound 0.1 µM
[9] = second compound 0.1 µM, first compound 0.316 µM
[10] = second compound 0.1 µM, first compound 1 µM
[11] = second compound 0.1 µM, first compound 3.16 µM
[12] = second compound 0.1 µM, first compound 10 µM
[13] = second compound 0.316 µM, first compound 0.0316 µM
[14] = second compound 0.316 µM, first compound 0.1 µM
[15] = second compound 0.316 µM, first compound 0.316 µM
[16] = second compound 0.316 µM, first compound 1 µM
[17] = second compound 0.316 µM, first compound 3.16 µM
[18] = second compound 0.316 µM, first compound 10 µM
[19] = second compound 1 µM, first compound 0.0316 µM
[20] = second compound 1 µM, first compound 0.1 µM
[21] = second compound 1 µM, first compound 0.316 µM
[22] = second compound 1 µM, first compound 1 µM
[23] = second compound 1 µM, first compound 3.16 µM
[24] = second compound 1 µM, first compound 10 µM
[25] = second compound 3.16 µM, first compound 0.0316 µM
[26] = second compound 3.16 µM, first compound 0.1 µM
[27] = second compound 3.16 µM, first compound 0.316 µM
[28] = second compound 3.16 µM, first compound 1 µM
[29] = second compound 3.16 µM, first compound 3.16 µM
[30] = second compound 3.16 µM, first compound 10 µM
[31] = second compound 10 µM, first compound 0.0316 µM
[32] = second compound 10 µM, first compound 0.1 µM
[33] = second compound 10 µM, first compound 0.316 µM
[34] = second compound 10 µM, first compound 1 µM
[35] = second compound 10 µM, first compound 3.16 µM
[36] = second compound 10 µM, first compound 10 µM
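Also: spheroids exposed to drugs for seven days before viability read.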
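For viability, T/C in this document: 100% = DMSO vehicle control wells.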

Compound: CC(=O)O[C@H]1C(=O)[C@@]2(C)[C@H]([C@H](OC(=O)c3ccccc3)[C@]3(O)C[C@H](OC(=O)[C@H](O)[C@@H](NC(=O)c4ccccc4)c4ccccc4)C(C)=C1C3(C)C)[C@]1(OC(C)=O)CO[C@@H]1C[C@@H]2O + COC1C(OC(N)=O)C(O)C(Oc2ccc3c(O)c(NC(=O)c4ccc(O)c(CC=C(C)C)c4)c(=O)oc3c2C)OC1(C)C
- IC50 (second compound 0.0316 µM): < 9.49 nM
- IC50 (second compound 0.1 µM): < 9.49 nM
- IC50 (second compound 0.316 µM): < 9.49 nM
- IC50 (second compound 1 µM): < 9.49 nM
- IC50 (second compound 3.16 µM): < 9.49 nM
- IC50 (second compound 10 µM): < 9.49 nM
- viability, T/C (second compound 0.0316 µM, first compound 0.00949 µM): 33.5%
- viability, T/C (second compound 0.0316 µM, first compound 0.03 µM): 21.4%
- viability, T/C (second compound 0.0316 µM, first compound 0.0949 µM): 14.8%
- viability, T/C (second compound 0.0316 µM, first compound 0.3 µM): 16.4%
- viability, T/C (second compound 0.0316 µM, first compound 0.949 µM): 16.6%
- viability, T/C (second compound 0.0316 µM, first compound 3 µM): 19.3%
- viability, T/C (second compound 0.1 µM, first compound 0.00949 µM): 35.7%
- viability, T/C (second compound 0.1 µM, first compound 0.03 µM): 21.5%
- viability, T/C (second compound 0.1 µM, first compound 0.0949 µM): 16.9%
- viability, T/C (second compound 0.1 µM, first compound 0.3 µM): 17.5%
- viability, T/C (second compound 0.1 µM, first compound 0.949 µM): 16.5%
- viability, T/C (second compound 0.1 µM, first compound 3 µM): 18.1%
- viability, T/C (second compound 0.316 µM, first compound 0.00949 µM): 37.9%
- viability, T/C (second compound 0.316 µM, first compound 0.03 µM): 18.4%
- viability, T/C (second compound 0.316 µM, first compound 0.0949 µM): 16.6%
- viability, T/C (second compound 0.316 µM, first compound 0.3 µM): 13.8%
- viability, T/C (second compound 0.316 µM, first compound 0.949 µM): 17.9%
- viability, T/C (second compound 0.316 µM, first compound 3 µM): 18.2%
- viability, T/C (second compound 1 µM, first compound 0.00949 µM): 34.6%
- viability, T/C (second compound 1 µM, first compound 0.03 µM): 19.5%
- viability, T/C (second compound 1 µM, first compound 0.0949 µM): 17.4%
- viability, T/C (second compound 1 µM, first compound 0.3 µM): 17.2%
- viability, T/C (second compound 1 µM, first compound 0.949 µM): 16.2%
- viability, T/C (second compound 1 µM, first compound 3 µM): 16.6%
- viability, T/C (second compound 3.16 µM, first compound 0.00949 µM): 32.8%
- viability, T/C (second compound 3.16 µM, first compound 0.03 µM): 21.3%
- viability, T/C (second compound 3.16 µM, first compound 0.0949 µM): 14.9%
- viability, T/C (second compound 3.16 µM, first compound 0.3 µM): 18.2%
- viability, T/C (second compound 3.16 µM, first compound 0.949 µM): 17.5%
- viability, T/C (second compound 3.16 µM, first compound 3 µM): 18.4%
- viability, T/C (second compound 10 µM, first compound 0.00949 µM): 36.6%
- viability, T/C (second compound 10 µM, first compound 0.03 µM): 19.9%
- viability, T/C (second compound 10 µM, first compound 0.0949 µM): 14.4%
- viability, T/C (second compound 10 µM, first compound 0.3 µM): 16.6%
- viability, T/C (second compound 10 µM, first compound 0.949 µM): 14.6%
- viability, T/C (second compound 10 µM, first compound 3 µM): 16.4%

Compound: COc1cc(C2c3cc4c(cc3C(OC3OC5COC(C)OC5C(O)C3O)C3COC(=O)C23)OCO4)cc(OC)c1O (stereo unspecified) + Nc1ccc(C#CCN(C(=O)Cc2ncc(C(F)(F)F)cc2C(F)(F)F)c2ccc(F)cc2)nn1
- IC50 (second compound 0.0316 µM): 832 nM
- IC50 (second compound 0.1 µM): 666 nM
- IC50 (second compound 0.316 µM): 762 nM
- IC50 (second compound 1 µM): 616 nM
- IC50 (second compound 3.16 µM): 597 nM
- IC50 (second compound 10 µM): 565 nM
- viability, T/C [1]: 95.1%
- viability, T/C [2]: 86.1%
- viability, T/C [3]: 87.8%
- viability, T/C [4]: 42.9%
- viability, T/C [5]: 26.8%
- viability, T/C [6]: 31.6%
- viability, T/C [7]: 99.5%
- viability, T/C [8]: 90.8%
- viability, T/C [9]: 74.5%
- viability, T/C [10]: 35.5%
- viability, T/C [11]: 37.5%
- viability, T/C [12]: 29.9%
- viability, T/C [13]: 108%
- viability, T/C [14]: 68.9%
- viability, T/C [15]: 69.1%
- viability, T/C [16]: 49.6%
- viability, T/C [17]: 31.2%
- viability, T/C [18]: 30.4%
- viability, T/C [19]: 83.3%
- viability, T/C [20]: 89.2%
- viability, T/C [21]: 60.3%
- viability, T/C [22]: 43.9%
- viability, T/C [23]: 28%
- viability, T/C [24]: 31.7%
- viability, T/C [25]: 109%
- viability, T/C [26]: 86.7%
- viability, T/C [27]: 64.6%
- viability, T/C [28]: 37.6%
- viability, T/C [29]: 32.7%
- viability, T/C [30]: 31.3%
- viability, T/C [31]: 110%
- viability, T/C [32]: 79.2%
- viability, T/C [33]: 64.8%
- viability, T/C [34]: 38.4%
- viability, T/C [35]: 29%
- viability, T/C [36]: 33.7%

Compound: CC1COCCN1c1cc(-c2ccnn2C)c2ccnc(-c3ccn[nH]3)c2n1 (stereo unspecified) + Nc1ccc(C#CCN(C(=O)Cc2ncc(C(F)(F)F)cc2C(F)(F)F)c2ccc(F)cc2)nn1
- IC50 (second compound 0.0316 µM): 71.5 nM
- IC50 (second compound 0.1 µM): 85.6 nM
- IC50 (second compound 0.316 µM): 86.2 nM
- IC50 (second compound 1 µM): 83.8 nM
- IC50 (second compound 3.16 µM): 86.6 nM
- IC50 (second compound 10 µM): 91.5 nM
- viability, T/C [1]: 92.4%
- viability, T/C [2]: 32.2%
- viability, T/C [3]: 19.1%
- viability, T/C [4]: 15.3%
- viability, T/C [5]: 14.8%
- viability, T/C [6]: 17.6%
- viability, T/C [7]: 89.4%
- viability, T/C [8]: 43.9%
- viability, T/C [9]: 18.5%
- viability, T/C [10]: 13.6%
- viability, T/C [11]: 21.2%
- viability, T/C [12]: 19.4%
- viability, T/C [13]: 117%
- viability, T/C [14]: 40%
- viability, T/C [15]: 17.4%
- viability, T/C [16]: 13.3%
- viability, T/C [17]: 18.7%
- viability, T/C [18]: 22%
- viability, T/C [19]: 103%
- viability, T/C [20]: 40.2%
- viability, T/C [21]: 20.2%
- viability, T/C [22]: 16.3%
- viability, T/C [23]: 16.8%
- viability, T/C [24]: 21.2%
- viability, T/C [25]: 91.7%
- viability, T/C [26]: 44%
- viability, T/C [27]: 15.5%
- viability, T/C [28]: 16.1%
- viability, T/C [29]: 19.2%
- viability, T/C [30]: 27.6%
- viability, T/C [31]: 93.4%
- viability, T/C [32]: 46.3%
- viability, T/C [33]: 19.4%
- viability, T/C [34]: 18.4%
- viability, T/C [35]: 19.3%
- viability, T/C [36]: 21.1%
